We go through 7 compounds from patent US7074789B2, “Kinase inhibitors” (Amgen Inc., priority 1999, dated 2006).

What all share (type): biochemical
For assay [1], the target named is T1, Lck (Homo sapiens, UniProt P06239).
T1 construct: Kinases are expressed as either kinase domains or full length constructs; made in house
In words: Kinase inhibition assay (33P transfer), Lck. As to conditions: Table 3, class symbols; read-out: Lck-1. In short, it runs like this: (§1)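 GST/His-tagged kinase (domain or full length; E. coli or baculovirus) + [33P]ATP on plates coated with poly(Glu,Tyr) 4:1 or poly(Arg,Ser) 3:1; incubate, wash 0.5% H3PO4, add scintillant, count.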

For assay [2], the target named is T2, Zap-70 (Homo sapiens, UniProt P43403).
T2 construct: Kinases are expressed as either kinase domains or full length constructs; made in house
T2 sequence (P43403 1-619): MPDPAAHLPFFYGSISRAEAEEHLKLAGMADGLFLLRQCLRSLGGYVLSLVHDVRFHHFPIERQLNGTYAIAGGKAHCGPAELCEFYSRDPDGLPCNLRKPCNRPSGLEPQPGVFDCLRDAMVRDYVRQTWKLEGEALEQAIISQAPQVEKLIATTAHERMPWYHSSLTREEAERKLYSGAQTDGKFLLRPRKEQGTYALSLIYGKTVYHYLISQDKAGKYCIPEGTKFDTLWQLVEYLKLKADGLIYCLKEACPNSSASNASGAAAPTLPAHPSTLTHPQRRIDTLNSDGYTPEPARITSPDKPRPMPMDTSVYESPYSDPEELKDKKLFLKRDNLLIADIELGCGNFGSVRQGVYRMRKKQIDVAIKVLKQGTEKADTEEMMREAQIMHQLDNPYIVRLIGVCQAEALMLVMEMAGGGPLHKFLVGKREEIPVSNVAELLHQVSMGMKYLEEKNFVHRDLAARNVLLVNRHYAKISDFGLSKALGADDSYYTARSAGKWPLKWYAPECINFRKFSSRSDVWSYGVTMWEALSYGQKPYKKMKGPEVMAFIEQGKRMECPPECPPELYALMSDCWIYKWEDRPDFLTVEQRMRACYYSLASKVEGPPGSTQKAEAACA
In words: Kinase inhibition assay (33P transfer), Zap-70. As to conditions: Table 3, class symbols; read-out: Zap-1. The method, boiled down:
as §1

Assay [3] addresses T3, Itk (Homo sapiens, UniProt Q08881).
T3 construct: Kinases are expressed as either kinase domains or full length constructs; made in house
T3 sequence (Q08881 1-620): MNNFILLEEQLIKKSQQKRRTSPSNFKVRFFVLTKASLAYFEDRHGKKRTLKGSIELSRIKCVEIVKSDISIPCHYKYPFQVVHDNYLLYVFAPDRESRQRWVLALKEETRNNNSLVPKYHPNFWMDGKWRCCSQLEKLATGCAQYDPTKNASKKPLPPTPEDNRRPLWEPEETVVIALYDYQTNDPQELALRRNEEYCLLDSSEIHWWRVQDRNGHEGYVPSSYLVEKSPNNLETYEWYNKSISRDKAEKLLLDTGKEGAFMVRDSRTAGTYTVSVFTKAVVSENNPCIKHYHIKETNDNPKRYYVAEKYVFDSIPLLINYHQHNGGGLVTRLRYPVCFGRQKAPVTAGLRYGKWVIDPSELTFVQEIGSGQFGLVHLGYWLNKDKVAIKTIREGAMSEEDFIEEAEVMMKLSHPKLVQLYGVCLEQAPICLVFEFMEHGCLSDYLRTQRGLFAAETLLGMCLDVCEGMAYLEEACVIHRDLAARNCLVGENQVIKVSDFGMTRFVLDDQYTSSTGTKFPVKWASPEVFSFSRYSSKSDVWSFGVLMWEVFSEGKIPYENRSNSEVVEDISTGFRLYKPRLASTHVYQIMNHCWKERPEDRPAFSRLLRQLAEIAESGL
The assay is described as follows: Kinase inhibition assay (33P transfer), Itk. As to conditions: Table 3, class symbols; read-out: Itk-1. In short, it runs like this:
(§2)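 Radiometric format: recombinant tagged kinase (catalytic domain or whole protein, sometimes combined with regulatory polypeptides) phosphorylates immobilised poly(Glu,Tyr) 4:1 or poly(Arg,Ser) 3:1 using [33P]ATP. Wells are washed in 0.5% phosphoric acid, then counted. IC50 is taken where substrate labelling falls by half.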

Assay [4] deals with T4, EGFR (Homo sapiens, UniProt P00533).
T4 construct: Kinases are expressed as either kinase domains or full length constructs; made in house
The assay is described as follows: Kinase inhibition assay (33P transfer), EGFR. The settings on record: Table 2, class symbols A-E; read-out: EGFR-1. The method, boiled down:
as §2

Assay [5] deals with T5, ErbB2 (Homo sapiens, UniProt P04626).
T5 construct: Kinases are expressed as either kinase domains or full length constructs; made in house
In words: Kinase inhibition assay (33P transfer), ErbB2. As to conditions: read-out: ErbB2-2. The method, boiled down:
as §2

Assay [6] deals with T6, Kdr (Homo sapiens, UniProt P35968).
T6 construct: Kinases are expressed as either kinase domains or full length constructs; made in house
T6 sequence (P35968 20-1356, species assumed): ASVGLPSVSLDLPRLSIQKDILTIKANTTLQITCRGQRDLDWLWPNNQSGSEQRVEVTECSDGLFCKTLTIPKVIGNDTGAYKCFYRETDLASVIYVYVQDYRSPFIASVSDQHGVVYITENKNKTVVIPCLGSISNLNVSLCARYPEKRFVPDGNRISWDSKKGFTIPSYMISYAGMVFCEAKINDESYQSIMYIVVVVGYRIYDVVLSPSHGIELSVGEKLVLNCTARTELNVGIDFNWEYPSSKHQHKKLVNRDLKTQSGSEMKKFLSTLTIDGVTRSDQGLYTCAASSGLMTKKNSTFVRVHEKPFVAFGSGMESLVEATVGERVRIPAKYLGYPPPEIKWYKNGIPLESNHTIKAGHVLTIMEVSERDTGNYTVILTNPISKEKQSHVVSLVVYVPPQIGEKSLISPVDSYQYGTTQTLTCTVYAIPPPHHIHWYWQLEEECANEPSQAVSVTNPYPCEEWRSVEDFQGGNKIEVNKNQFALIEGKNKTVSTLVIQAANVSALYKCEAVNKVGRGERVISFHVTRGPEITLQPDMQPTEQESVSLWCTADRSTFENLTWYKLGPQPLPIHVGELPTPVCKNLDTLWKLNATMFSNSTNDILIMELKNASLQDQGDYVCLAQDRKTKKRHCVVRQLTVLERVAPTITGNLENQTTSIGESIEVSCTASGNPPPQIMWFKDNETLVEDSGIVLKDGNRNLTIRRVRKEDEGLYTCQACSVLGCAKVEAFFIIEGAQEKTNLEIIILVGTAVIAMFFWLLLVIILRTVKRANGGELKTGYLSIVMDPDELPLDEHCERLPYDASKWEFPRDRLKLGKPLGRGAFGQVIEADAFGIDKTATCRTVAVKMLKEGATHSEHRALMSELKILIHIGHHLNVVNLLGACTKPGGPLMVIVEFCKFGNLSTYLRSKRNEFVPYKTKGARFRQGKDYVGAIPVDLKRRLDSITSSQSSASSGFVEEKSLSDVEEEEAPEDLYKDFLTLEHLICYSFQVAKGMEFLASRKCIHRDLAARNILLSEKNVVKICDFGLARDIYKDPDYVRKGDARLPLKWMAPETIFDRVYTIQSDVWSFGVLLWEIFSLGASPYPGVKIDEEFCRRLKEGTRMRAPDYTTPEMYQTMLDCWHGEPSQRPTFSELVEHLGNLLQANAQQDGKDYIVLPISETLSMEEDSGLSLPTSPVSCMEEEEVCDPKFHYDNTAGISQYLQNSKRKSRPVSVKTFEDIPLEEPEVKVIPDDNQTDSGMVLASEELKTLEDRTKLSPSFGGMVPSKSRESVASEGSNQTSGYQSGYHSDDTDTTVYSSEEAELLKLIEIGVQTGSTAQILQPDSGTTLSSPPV
The assay is described as follows: Kinase inhibition assay (33P transfer), Kdr. The settings on record: Table 3, class symbols; read-out: KDR-1. In short, it runs like this: as §1

The target in assay [7] is T7, c-Met (Homo sapiens, UniProt P08581).
T7 construct: Kinases are expressed as either kinase domains or full length constructs; made in house
T7 sequence (P08581 25-1390): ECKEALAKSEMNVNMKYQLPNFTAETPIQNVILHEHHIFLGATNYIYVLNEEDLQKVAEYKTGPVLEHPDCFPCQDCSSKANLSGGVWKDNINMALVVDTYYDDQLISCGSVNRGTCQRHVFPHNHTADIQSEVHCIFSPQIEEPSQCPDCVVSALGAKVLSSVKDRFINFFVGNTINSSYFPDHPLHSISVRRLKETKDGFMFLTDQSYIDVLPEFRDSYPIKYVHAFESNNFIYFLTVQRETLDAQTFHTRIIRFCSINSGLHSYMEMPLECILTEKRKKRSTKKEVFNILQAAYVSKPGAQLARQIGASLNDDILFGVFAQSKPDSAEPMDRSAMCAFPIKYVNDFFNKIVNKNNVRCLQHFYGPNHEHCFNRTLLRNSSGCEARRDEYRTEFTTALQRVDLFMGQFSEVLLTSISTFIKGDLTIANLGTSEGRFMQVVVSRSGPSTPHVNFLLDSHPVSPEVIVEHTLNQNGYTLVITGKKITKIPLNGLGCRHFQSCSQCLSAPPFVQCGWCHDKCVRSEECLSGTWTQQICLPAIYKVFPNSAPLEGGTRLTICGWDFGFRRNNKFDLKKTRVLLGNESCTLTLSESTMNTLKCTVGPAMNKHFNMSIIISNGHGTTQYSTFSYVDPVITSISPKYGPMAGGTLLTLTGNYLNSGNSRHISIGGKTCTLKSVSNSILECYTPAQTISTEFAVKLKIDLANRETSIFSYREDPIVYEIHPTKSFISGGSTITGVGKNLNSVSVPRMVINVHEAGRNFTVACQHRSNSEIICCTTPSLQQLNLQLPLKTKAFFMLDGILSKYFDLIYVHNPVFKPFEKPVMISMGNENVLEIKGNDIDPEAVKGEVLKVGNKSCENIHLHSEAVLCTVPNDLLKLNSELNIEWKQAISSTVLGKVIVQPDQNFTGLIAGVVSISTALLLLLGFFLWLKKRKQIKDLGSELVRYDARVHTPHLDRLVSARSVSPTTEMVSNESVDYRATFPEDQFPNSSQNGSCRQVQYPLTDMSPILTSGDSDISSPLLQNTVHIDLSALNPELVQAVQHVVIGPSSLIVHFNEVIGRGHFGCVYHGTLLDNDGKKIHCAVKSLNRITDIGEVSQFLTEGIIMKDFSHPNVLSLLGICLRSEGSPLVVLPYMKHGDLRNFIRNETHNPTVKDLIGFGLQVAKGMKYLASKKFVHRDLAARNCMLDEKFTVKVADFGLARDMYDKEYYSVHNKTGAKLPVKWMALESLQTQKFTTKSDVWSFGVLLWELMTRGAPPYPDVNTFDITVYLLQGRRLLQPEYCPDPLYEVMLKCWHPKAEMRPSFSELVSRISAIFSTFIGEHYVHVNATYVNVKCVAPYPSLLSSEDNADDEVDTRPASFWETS
The assay is described as follows: Kinase inhibition assay (33P transfer), c-Met. As to conditions: Table 2, class symbols A-E; read-out: Met-1. In short, it runs like this:
as §2

The target of assay [8] is T8, AKT (Homo sapiens, UniProt Q9Y243).
T8 construct: Kinases are expressed as either kinase domains or full length constructs; made in house
T8 sequence (Q9Y243 whole entry, the tested form may be a part): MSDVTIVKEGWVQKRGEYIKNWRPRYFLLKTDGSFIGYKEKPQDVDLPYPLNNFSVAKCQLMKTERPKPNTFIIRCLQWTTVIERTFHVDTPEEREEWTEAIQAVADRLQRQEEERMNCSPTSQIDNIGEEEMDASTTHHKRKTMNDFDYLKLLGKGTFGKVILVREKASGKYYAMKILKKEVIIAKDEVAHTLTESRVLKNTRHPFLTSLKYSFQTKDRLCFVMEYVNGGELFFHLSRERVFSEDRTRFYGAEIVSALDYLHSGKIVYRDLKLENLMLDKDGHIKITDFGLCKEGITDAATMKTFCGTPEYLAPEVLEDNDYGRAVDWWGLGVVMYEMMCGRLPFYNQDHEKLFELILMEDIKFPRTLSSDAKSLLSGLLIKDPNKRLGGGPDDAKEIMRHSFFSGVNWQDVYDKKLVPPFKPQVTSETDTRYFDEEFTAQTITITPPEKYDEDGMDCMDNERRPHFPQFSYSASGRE
The assay is described as follows: Kinase inhibition assay (33P transfer), AKT. As to conditions: Table 2, class symbols A-E; read-out: AKT3-1. In short, it runs like this:
as §1

Assay [9] deals with T9, IGFR-1 (Homo sapiens, UniProt P08069).
T9 construct: Kinases are expressed as either kinase domains or full length constructs; made in house
In words: Kinase inhibition assay (33P transfer), IGFR-1. As to conditions: Table 2, class symbols A-E.

Assay [10] has as its target T10, PDGFRB (Homo sapiens, UniProt P09619).
T10 construct: Kinases are expressed as either kinase domains or full length constructs; made in house
In words: Kinase inhibition assay (33P transfer), PDGFRB. As to conditions: read-out: PDGFRB-1.

T10 sequence (P09619 33-1106, species assumed): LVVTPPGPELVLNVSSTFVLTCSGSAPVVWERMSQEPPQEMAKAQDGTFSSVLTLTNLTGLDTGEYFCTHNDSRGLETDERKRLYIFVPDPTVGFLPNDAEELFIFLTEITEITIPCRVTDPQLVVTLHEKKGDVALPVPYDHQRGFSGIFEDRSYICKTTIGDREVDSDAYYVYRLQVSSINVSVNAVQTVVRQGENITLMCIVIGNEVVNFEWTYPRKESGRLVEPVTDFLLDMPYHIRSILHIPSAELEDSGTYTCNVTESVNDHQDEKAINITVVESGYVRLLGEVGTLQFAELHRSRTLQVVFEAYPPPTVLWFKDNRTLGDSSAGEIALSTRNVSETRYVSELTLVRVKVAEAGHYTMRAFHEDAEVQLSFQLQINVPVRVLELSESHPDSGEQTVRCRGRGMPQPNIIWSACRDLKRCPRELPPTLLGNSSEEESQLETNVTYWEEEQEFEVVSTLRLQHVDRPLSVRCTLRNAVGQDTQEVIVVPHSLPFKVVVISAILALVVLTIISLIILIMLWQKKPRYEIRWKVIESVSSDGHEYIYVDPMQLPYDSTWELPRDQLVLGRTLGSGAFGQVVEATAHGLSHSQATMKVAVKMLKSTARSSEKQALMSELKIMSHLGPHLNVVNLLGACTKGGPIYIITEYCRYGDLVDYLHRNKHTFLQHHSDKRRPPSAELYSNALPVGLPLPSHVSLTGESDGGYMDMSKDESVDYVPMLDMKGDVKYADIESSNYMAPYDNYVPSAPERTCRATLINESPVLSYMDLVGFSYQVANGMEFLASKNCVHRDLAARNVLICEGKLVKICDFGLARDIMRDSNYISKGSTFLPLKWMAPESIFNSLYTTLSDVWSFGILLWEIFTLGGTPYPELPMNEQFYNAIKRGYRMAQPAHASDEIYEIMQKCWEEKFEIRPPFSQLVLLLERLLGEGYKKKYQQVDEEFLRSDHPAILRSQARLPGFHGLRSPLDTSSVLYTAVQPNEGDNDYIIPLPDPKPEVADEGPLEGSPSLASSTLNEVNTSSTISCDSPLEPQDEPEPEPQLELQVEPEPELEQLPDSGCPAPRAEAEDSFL
T1 sequence (P06239 whole entry, species assumed, the tested form may be a part): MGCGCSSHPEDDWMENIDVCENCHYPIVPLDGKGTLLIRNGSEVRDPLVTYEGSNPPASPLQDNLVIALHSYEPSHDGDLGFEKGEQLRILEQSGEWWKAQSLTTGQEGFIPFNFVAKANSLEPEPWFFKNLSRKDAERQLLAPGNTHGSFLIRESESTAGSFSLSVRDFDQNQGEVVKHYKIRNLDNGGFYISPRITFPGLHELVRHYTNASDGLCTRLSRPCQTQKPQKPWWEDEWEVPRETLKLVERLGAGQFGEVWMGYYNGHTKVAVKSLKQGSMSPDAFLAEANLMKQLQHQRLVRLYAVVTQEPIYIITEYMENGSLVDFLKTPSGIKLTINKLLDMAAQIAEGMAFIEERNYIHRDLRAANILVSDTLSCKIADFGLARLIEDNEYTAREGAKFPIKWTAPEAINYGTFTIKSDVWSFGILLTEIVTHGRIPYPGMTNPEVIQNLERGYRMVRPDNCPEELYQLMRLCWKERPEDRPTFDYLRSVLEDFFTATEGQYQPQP

For `COc1cc(Nc2ncnc(-c3cccnc3NCc3ccccc3OC(F)(F)F)n2)cc(OC)c1OC` [Compound 842], the IC50 is > 8.51 µM in assay [1]; 6.62 to 8.51 µM in assay [2]; > 8.51 µM in assay [3]; > 8.51 µM in assay [4]; 6.62 to 8.51 µM in assay [5]; 0.757 to 4.54 µM in assay [6]. Further, the IC50 in [7] was 6.62 to 8.51 µM; in assay [8], > 8.51 µM; in assay [9] it was > 8.51 µM; in [10] it was 4.54 to 6.62 µM.
As for `COc1ccc(Nc2ncnc(N(C)[C@H](C)c3ccccc3)n2)cc1OC` [Compound 803], the IC50 in assay [1] was 1.09 to 6.57 µM; in assay [2], > 12.3 µM; in assay [3], > 12.3 µM; in assay [4], 1.09 to 6.57 µM; in [5] it was 6.57 to 9.58 µM; in assay [6], > 12.3 µM. Besides, the IC50 in [7], in assay [8], in assay [9] and in assay [10] was > 12.3 µM each time.
Regarding `COc1ccc(Nc2ncnc(N(C)c3ccc4c(cnn4Cc4ccccc4)c3)n2)cc1OC` [Compound 669], the IC50 is 0.856 to 5.13 µM in assay [1]; > 9.62 µM in assay [2]; > 9.62 µM in assay [3]; < 0.856 µM in assay [4]; < 0.856 µM in [5]; 0.856 to 5.13 µM in assay [6]. Besides, the IC50 in assay [7] is 7.49 to 9.62 µM; in [8], > 9.62 µM; in [9], > 9.62 µM; in [10], 0.856 to 5.13 µM.
As for `c1ccc(Cn2ncc3cc(Nc4ncnc(Nc5ccc6ncsc6c5)n4)ccc32)cc1` [Compound 900], the IC50 in [1] is 0.888 to 5.33 µM; in assay [2], 5.33 to 7.77 µM; in assay [3], 0.888 to 5.33 µM; in assay [4], < 0.888 µM; in assay [5], < 0.888 µM; in assay [6] it was < 0.888 µM. The IC50 is < 0.888 µM in assay [7], < 0.888 µM in [8], 0.888 to 5.33 µM in [9] and 0.888 to 5.33 µM in [10].
For `COc1cc(Nc2ncnc(Nc3ccc(OCCO)cc3)n2)cc(OC)c1OC` [Compound 636], the IC50 is < 0.968 µM in assay [1]; > 10.9 µM in [2]; > 10.9 µM in [3]; 0.968 to 5.81 µM in assay [4]; 0.968 to 5.81 µM in assay [5]; < 0.968 µM in [6]. In addition, the IC50 in assay [7] was > 10.9 µM; in assay [8], > 10.9 µM; in assay [9], > 10.9 µM; in [10] it was < 0.968 µM.
In the case of `COc1ccc(Nc2ncnc(Nc3ccc(F)c(F)c3)n2)cc1OC` [Compound 794], the IC50 lay in the range of 1.11 to 6.68 µM in assay [1]; 9.74 to 12.5 µM in [2]; 9.74 to 12.5 µM in assay [3]; 1.11 to 6.68 µM in assay [4]; 1.11 to 6.68 µM in assay [5]; 6.68 to 9.74 µM in [6]. The IC50 in assay [7] is 9.74 to 12.5 µM; in assay [8], > 12.5 µM; in assay [9], 6.68 to 9.74 µM; in assay [10], 1.11 to 6.68 µM.
In the case of `COC(=O)c1ccc(-c2cc(Nc3ncnc(Nc4cccc(CCC(=O)O)c4)n3)[nH]n2)cc1` [Compound 992], the IC50 in assay [1] is < 0.871 µM; in assay [2], 0.871 to 5.22 µM; in assay [3], 0.871 to 5.22 µM; in [4], 0.871 to 5.22 µM; in assay [5] it was 0.871 to 5.22 µM; in assay [6], 0.871 to 5.22 µM. In addition, the IC50 in [7] is < 0.871 µM; in assay [8], 5.22 to 7.62 µM; in assay [9], < 0.871 µM; in assay [10] it was 0.871 to 5.22 µM.
